Experimental data as given in patent US4889859A, “Pyrido[2,3-d]pyrimidine derivatives” (priority 1988, dated 1989).
Converted amounts (≈) assume the structure as drawn. One block for each molecule: values may come before it.

Assays:
[1] = test system: mouse L1210 leukemia; conditions: literature; cited from earlier work
[2] = literature; cited from earlier work
[3] = test system: dihydrofolate reductase; conditions: literature; cited from earlier work
[4] = test system: human leukemia cell line (CCRF-CEM); assay: IC50 determined in whole cell human leukemia cell line (CCRF-CEM); assay type: cell-based
Text: Representative IC50 values determined in whole cell human leukemia cell line (CCRF-CEM) are as follows: […]

[5] = test system: 6C3HED lymphosarcoma; assay: 6C3HED lymphosarcoma in mice; assay type: in vivo
[6] = test system: C3H mammary adenocarcinoma; assay: C3H mammary adenocarcinoma implanted in mice, intraperitoneal treatment for five days; assay type: in vivo; conditions: intraperitoneally for five days
Procedure: At a dosage of 100 mg/kg, 80% inhibition was observed.

Compound: Nc1nc(N)c2cc(CCc3ccc(C(=O)N[C@@H](CCC(=O)O)C(=O)O)cc3)ccc2n1 [5,8,10-trideazaaminopterin]
activity against mouse L1210 leukemia [1]: exhibits activity

Compound: Nc1nc2ccc(CCc3ccc(C(=O)N[C@@H](CCC(=O)O)C(=O)O)cc3)cc2c(=O)[nH]1 [5,8,10-trideazafolic acid]
activity against mouse L1210 leukemia [1]: only marginal activity

Compound: Nc1nc2ncc(CNc3ccc(C(=O)N[C@@H](CCC(=O)O)C(=O)O)cc3)cc2c(=O)[nH]1 [5-Deazafolic acid]
cytotoxicity [2]: only weakly cytotoxic

Compound: Nc1nc(N)c2nc(CCc3ccc(C(=O)N[C@@H](CCC(=O)O)C(=O)O)cc3)ccc2n1 [8,10-Dideazaaminopterin]
antimetabolic activity [2]: active

Compound: Nc1nc2ccc(CCc3ccc(C(=O)N[C@@H](CCC(=O)O)C(=O)O)cc3)nc2c(=O)[nH]1 [8,10-Dideazafolic acid]
dihydrofolate reductase inhibition [3]: only marginally effective

Compound: Nc1nc(N)c2nc(CCc3ccc(C(=O)N[C@@H](CCC(=O)O)C(=O)O)cc3)cnc2n1 [10-Deazaaminopterin]
antimetabolic activity [2]: highly active

Compound: Nc1nc2ncc(CCc3ccc(C(=O)N[C@@H](CCC(=O)O)C(=O)O)cc3)nc2c(=O)[nH]1 [10-deazafolic acid]
antimetabolic activity [2]: no significant activity

IC50 [4]: 0.015 µg/mL (≈ 0.0338 µM)
Compound: Nc1nc(O)c2c(n1)NCC(CCc1cccc(C(=O)N[C@@H](CCC(=O)O)C(=O)O)c1)C2 (stereo partly drawn) [A, N-(3-[2-(2amino-4-hydroxy-5,6,7,8-tetrahydropyrido[2,3-d]pyrimidin-6-yl)ethyl]benzoyl)-L-glutamic acid]

Compound: CN(Cc1cnc2nc(N)nc(N)c2n1)c1ccc(C(=O)N[C@@H](CCC(=O)O)C(=O)O)cc1 [Amethopterin, 10-methylaminopterin]
dihydrofolate reductase inhibition [3]: inhibits dihydrofolate reductase

Compound: Nc1nc(O)c2c(n1)NCC(CCc1ccc(C(=O)N[C@@H](CCC(=O)O)C(=O)O)c(F)c1)C2 (stereo partly drawn) [Compound H, N-(2-fluoro-4-[2-(2-amino-4-hydroxy-5,6,7,8-tetrahydropyrido[2,3-d]pyrimidin-6-yl)ethyl]benzoyl)-L-glutamic acid]
% INHIBITION ([5]; dose 25 (MK/KG)): 94%
TOXIC/TOTAL ([5]; dose 25 (MK/KG)): 0/9
% INHIBITION ([5]; dose 50 (MK/KG)): 95%
TOXIC/TOTAL ([5]; dose 50 (MK/KG)): 0/10
% INHIBITION ([5]; dose 100 (MK/KG)): 100%
TOXIC/TOTAL ([5]; dose 100 (MK/KG)): 0/10
% INHIBITION ([5]; dose 200 (MK/KG)): 100%
TOXIC/TOTAL ([5]; dose 200 (MK/KG)): 0/10
toxicity ([6]; 30 mg/kg and 100 mg/kg): No toxicity was observed
inhibition ([6]; 30 mg/kg): 72%
inhibition ([6]; 100 mg/kg): 80%
IC50 [4]: 0.004 µg/mL (≈ 0.00867 µM)

IC50 [4]: 0.1 µg/mL (≈ 0.217 µM)
Compound: Nc1nc(O)c2c(n1)NCC(CCc1ccc(F)c(C(=O)N[C@@H](CCC(=O)O)C(=O)O)c1)C2 (stereo partly drawn) [D, N-(2-fluoro-5-[2-(2-amino-4-hydroxy-5,6,7,8-tetrahydropyrido[2,3-d]pyrimidin-6-yl)ethyl]benzoyl)-L-glutamic acid]

IC50 [4]: 0.027 µg/mL (≈ 0.0565 µM)
Compound: Nc1nc(O)c2c(n1)NCC(CCc1ccc(C(=O)N[C@@H](CCC(=O)O)C(=O)O)c(Cl)c1)C2 (stereo partly drawn) [F, N-(2-chloro-4-[2-(2-amino-4-hydroxy-5,6,7,8-tetrahydropyrido[2,3-d]pyrimidin-6-yl)ethyl]benzoyl)-L-glutamic acid]
